Source: patent US8795977B2, “Method for screening a potential modulator compound of a taste receptor” (Conopco, Inc., priority 2009, dated 2014)

Target: T1, T1R1/T1R3 umami receptor (Homo sapiens, UniProt Q7RTX0+Q7RTX1, C757R)
T1 construct: expressed in transfected cells; host or cells: HEK293 cells stably expressing Gα15, transiently transfected
T1 sequence (Q7RTX1 21-841): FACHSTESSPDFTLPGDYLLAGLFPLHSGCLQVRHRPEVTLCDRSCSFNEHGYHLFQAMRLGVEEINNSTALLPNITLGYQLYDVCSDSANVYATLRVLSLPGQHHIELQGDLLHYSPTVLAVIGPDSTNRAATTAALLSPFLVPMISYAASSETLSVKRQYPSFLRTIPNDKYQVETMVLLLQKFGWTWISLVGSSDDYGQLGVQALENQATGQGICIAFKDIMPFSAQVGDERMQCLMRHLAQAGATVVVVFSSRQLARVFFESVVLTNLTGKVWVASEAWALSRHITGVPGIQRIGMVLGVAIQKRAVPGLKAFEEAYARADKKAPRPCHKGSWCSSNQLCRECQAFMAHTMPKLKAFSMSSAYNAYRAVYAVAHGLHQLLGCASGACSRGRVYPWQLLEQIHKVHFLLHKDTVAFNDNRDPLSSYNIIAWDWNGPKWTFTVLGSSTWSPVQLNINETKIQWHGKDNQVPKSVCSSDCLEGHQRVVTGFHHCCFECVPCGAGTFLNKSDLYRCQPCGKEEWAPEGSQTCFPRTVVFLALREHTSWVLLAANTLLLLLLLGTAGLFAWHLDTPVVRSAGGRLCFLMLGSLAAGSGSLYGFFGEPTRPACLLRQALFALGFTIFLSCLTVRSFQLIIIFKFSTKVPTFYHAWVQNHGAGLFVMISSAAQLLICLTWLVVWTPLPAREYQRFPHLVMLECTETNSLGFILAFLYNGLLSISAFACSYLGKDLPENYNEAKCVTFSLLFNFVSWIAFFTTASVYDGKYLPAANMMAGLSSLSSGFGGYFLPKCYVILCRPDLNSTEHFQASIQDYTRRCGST
T1 sequence (Q7RTX0 21-852 C757R): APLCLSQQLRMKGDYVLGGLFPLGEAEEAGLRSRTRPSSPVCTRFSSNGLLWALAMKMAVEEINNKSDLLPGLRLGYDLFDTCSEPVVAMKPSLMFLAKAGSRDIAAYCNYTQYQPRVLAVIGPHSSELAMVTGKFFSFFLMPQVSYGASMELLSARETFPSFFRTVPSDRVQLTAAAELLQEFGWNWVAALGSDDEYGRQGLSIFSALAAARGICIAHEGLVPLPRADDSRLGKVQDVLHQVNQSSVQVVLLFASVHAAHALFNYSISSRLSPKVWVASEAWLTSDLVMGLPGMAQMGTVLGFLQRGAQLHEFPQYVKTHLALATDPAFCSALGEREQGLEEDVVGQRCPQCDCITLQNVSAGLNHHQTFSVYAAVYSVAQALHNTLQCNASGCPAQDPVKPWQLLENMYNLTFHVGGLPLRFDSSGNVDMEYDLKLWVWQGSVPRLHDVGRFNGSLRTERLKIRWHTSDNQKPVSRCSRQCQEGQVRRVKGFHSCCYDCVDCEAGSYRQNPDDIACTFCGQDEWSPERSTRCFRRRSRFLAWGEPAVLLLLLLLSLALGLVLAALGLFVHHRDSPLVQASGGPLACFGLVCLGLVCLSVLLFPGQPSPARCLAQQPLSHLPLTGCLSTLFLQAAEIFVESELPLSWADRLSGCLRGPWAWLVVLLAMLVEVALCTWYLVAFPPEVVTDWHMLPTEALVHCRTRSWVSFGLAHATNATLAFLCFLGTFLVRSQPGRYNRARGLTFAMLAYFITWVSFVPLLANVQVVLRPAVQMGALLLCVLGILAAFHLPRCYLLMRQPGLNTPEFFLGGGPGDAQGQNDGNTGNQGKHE
Assay: Calcium-based receptor assay (release of intracellular calcium, Fluo-4-AM)
Assay type: cell-based
Design: key to T1R1/T1R3 receptor-specific signal, Calcium assay: +: For the calcium assay, cells expressing the umami receptor and Gα15 are compared with cells expressing Gα15 only; the difference between these signals is defined as umami receptor-specific signal; −: it was not possible to achieve umami receptor-specific signals using representative extracts and other complex mixtures using the calcium-based receptor assay
Conditions: for release of intracellular calcium, T1R1/T1R3 umami receptor, average / release of intracellular calcium, T1R1/T1R3 umami receptor, meas. 1 / release of intracellular calcium, T1R1/T1R3 umami receptor, meas. 2: change in fluorescence (ΔF)
Experimental: FIG. 1 Activation of the T1R1/T1R3 umami receptor expressed in HEK293-Gα15 cells as measured by monitoring the release of intracellular calcium using the calcium fluorescent marker Fluo-4-AM as described in Example 2. Activity of the umami receptor was measured as the change in fluorescence which was calculated by subtracting the […]. Test solutions comprise extracts as indicated and prepared as described in Example 2. […]
We developed a unique functional umami receptor assay to evaluate and quantify umami in tomato and other crude plant or food extracts using the BRET technique: to test the principle we used the donor and acceptor proteins relating to BRET-2. In short, the human T1R1 and T1R3 taste receptors were cloned and fused with Renilla luciferase (Rluc) as donor protein; green fluorescent protein-2 (GFP2) served as acceptor protein and was fused to β-arrestin-2. Both constructs were transfected into a HEK293 cell line cells) for heterologous expression of the proteins. Various mammalian cell lines have been reported to be highly suitable for expression of receptors or other proteins, with HEK293 (human embryonic kidney) cells and CHO (Chinese hamster ovary) cells being some of the most versatile and suitable ones^12. Similarly, GPCRs can be expressed in various ways as described in multiple publications, such as transient^6, 8, 13-15 or stable (constitutive or inducible)^6, 9, 16, 17 expression, depending on the nature of the experiment, the respective receptor or the available time. Upon receptor stimulation with an agonist or crude extracts, the β-arrestin-2/GFP-2 protein interacts with the activated receptor thus bringing GFP-2 in close proximity with luciferase, making energy transfer between these two proteins possible and generating a BRET signal. In the presence of oxygen the luciferase catalyses the transformation of the substrate DeepBlueC into coelenteramide, which can be measured at 395-410 nm. If GFP-2 is in close proximity to the luciferase and energy transfer takes place, the emission will shift to 510 nm; this is referred to as the BRET signal and is expressed as ratio between the acceptor (GFP-2) and the donor (Renilla luciferase). The following experiments are designed to illustrate that conventional calcium-based functional receptor assays are not suitable for measuring the effects of crude extracts; in contrast, the BRET assay (as indicated here with umami) can clearly measure specific receptor responses using crude natural extracts. Moreover, the assay is also sensitive enough for detecting differences of receptor activation between the different tomato samples. Materials & Methods: Chemicals and Media: Fluo-4 AM was from Molecular Probes (# F-14202, prepared as 5 mM stock in DMSO), DMEM (with 4.5 g/l glucose and ultraglutamine, # BE12-604F) was from Lonza, trypsin-EDTA, Lipofectamine 2000, OptiMem and FCS were obtained from Life Technologies Invitrogen. Monosodium glutamate (MSG), Inosine 5′-monophosphate as well as all other chemicals were from Sigma-Aldrich. The plasmid encoding GFP2-β-arrestin-2 was purchased from BioSignal Packard (#6310176). Coelenterazine 400A (a DeepBlueC derivative) and Coelenterazine-H were from VWR International (# BTIU10125-1 and 233903-50, respectively). All other cell culture supplies were from Greiner BioOne. Receptor Fusion Constructs, Cell Lines, and Media: The human T1R1 and human T1R3 umami receptors were fused at their C-terminal in frame to Renilla Luciferase (Rluc) using standard molecular cloning techniques and the codon-humanized pRluc-N3 vector from PerkinElmer (#6310220). For expression of the umami receptors and the construct encoding GFP-2/β-arrestin-2, HEK293 cells (human embryonic kidney cells, ATCC) were used using traditional transfection methods (see also below). HEK293 cells were maintained in DMEM and 10% FBS at 37° C./5% CO2. […]

SMILES: N[C@@H](CCC(=O)O)C(=O)[O-].[Na+] [MSG, Monosodium glutamate]
- release of intracellular calcium, T1R1/T1R3 umami receptor, average (100 μM MSG): 1170
- release of intracellular calcium, T1R1/T1R3 umami receptor, meas. 1 (100 μM MSG): 1146
- release of intracellular calcium, T1R1/T1R3 umami receptor, meas. 2 (100 μM MSG): 1193
- release of intracellular calcium, T1R1/T1R3 umami receptor, average (1 mM MSG): 3269
- release of intracellular calcium, T1R1/T1R3 umami receptor, meas. 1 (1 mM MSG): 2548
- release of intracellular calcium, T1R1/T1R3 umami receptor, meas. 2 (1 mM MSG): 3990
- release of intracellular calcium, T1R1/T1R3 umami receptor, average (10 mM MSG): 6749
- release of intracellular calcium, T1R1/T1R3 umami receptor, meas. 1 (10 mM MSG): 5766
- release of intracellular calcium, T1R1/T1R3 umami receptor, meas. 2 (10 mM MSG): 7732
- T1R1/T1R3 receptor-specific signal, Calcium assay (MSG 10 mM): +
- umami receptor-specific response in the calcium-based receptor assay (in words) (receptor-expressing versus control cells): umami receptor-specific responses
